# Measurements as given in ChEMBL document CHEMBL4270512, “Harnessing pyrrolidine iminosugars into dimeric structures for the rapid discovery of divalent glycosidase inhibitors” (Eur J Med Chem, 2018).
# Active and inactive are the calls of the source. The calls are words filed in the database; no cut-off is given here.
# What was measured:
# [1] = system: Canavalia ensiformis; test: Inhibition of jack beans beta-N-acetylglucosaminidase at 0.1 mM using p-nitrophenyl glycopyranoside as substrate preincubated for 5 mins followed by substrate addition and measured after 20 mins by visible absorption spectroscopic analysis
# [2] = Inhibition of bovine kidney alpha-fucosidase at 0.1 mM using p-nitrophenyl glycopyranoside as substrate preincubated for 5 mins followed by substrate addition and measured after 20 mins by visible absorption spectroscopic analysis relative to control; design: species or system Bos taurus
# [3] = target: T1, Beta-galactosidase (Bos taurus, UniProt Q58D55); test: Competitive inhibition of bovine liver beta-galactosidase using p-nitrophenyl glycopyranoside as substrate preincubated for 5 mins followed by substrate addition and measured after 20 mins by Lineweaver-Burk plot analysis
# T1 sequence (Q58D55 whole entry): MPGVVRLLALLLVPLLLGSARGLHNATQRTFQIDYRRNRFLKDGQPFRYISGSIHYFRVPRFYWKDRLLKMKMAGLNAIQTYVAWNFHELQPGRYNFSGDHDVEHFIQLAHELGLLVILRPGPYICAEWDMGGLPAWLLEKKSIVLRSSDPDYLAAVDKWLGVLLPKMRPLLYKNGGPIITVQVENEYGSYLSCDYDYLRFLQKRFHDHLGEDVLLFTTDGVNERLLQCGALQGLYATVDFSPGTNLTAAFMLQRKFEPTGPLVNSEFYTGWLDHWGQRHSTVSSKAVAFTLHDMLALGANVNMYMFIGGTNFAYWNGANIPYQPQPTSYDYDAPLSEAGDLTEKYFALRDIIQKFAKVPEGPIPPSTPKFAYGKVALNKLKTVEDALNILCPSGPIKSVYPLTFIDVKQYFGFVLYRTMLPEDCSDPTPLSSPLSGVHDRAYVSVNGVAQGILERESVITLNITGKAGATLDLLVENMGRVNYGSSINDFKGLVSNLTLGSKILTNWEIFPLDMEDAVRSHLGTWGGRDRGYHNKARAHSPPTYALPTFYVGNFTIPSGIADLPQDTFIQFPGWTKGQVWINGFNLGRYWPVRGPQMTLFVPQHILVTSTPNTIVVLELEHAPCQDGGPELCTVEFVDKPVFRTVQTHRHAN
# [4] = target: T1, Beta-galactosidase; test: Inhibition of bovine liver beta-galactosidase using p-nitrophenyl glycopyranoside as substrate preincubated for 5 mins followed by substrate addition and measured after 20 mins by visible absorption spectroscopic analysis
# [5] = target: T2, Alpha-mannosidase (Canavalia ensiformis) (UniProt C0HJB3); test: Inhibition of jack beans alpha-mannosidase at 0.1 mM using p-nitrophenyl glycopyranoside as substrate preincubated for 5 mins followed by substrate addition and measured after 20 mins by visible absorption spectroscopic analysis
# T2 sequence (whole entry): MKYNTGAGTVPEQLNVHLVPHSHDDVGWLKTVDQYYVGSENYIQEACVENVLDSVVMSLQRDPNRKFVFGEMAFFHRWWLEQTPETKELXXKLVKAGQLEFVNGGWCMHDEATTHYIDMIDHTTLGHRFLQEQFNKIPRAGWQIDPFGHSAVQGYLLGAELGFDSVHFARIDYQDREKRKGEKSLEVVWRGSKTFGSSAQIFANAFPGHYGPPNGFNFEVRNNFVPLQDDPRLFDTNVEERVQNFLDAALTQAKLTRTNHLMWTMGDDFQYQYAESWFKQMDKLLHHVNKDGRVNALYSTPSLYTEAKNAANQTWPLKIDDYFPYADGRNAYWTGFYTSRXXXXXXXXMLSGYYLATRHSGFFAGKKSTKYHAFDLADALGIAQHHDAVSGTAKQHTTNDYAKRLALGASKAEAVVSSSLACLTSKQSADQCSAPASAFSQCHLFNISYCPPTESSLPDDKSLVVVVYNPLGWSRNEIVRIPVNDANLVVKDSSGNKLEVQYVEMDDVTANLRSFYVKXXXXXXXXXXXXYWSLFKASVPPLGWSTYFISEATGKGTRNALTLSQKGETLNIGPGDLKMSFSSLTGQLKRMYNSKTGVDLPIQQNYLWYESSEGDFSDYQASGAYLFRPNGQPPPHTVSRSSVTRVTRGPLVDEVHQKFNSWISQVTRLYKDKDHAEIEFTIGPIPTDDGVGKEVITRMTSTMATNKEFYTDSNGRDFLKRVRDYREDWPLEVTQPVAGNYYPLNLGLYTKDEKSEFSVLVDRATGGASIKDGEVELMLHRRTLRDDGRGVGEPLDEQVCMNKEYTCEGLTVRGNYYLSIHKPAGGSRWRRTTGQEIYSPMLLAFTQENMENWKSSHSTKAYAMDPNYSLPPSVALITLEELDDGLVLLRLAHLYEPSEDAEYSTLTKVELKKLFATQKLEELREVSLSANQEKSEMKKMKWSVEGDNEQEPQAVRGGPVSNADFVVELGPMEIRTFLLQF
# [6] = system: Aspergillus niger; test: Inhibition of Aspergillus niger amyloglucosidase at 0.1 mM using p-nitrophenyl glycopyranoside as substrate preincubated for 5 mins followed by substrate addition and measured after 20 mins by visible absorption spectroscopic analysis
# [7] = target: Alpha-galactosidase (Coffea arabica) (UniProt Q42656); test: Inhibition of coffee beans alpha-galactosidase at 0.1 mM using p-nitrophenyl glycopyranoside as substrate preincubated for 5 mins followed by substrate addition and measured after 20 mins by visible absorption spectroscopic analysis
# Chain of Alpha-galactosidase (Coffea arabica) (Q42656 16-378 limits assumed): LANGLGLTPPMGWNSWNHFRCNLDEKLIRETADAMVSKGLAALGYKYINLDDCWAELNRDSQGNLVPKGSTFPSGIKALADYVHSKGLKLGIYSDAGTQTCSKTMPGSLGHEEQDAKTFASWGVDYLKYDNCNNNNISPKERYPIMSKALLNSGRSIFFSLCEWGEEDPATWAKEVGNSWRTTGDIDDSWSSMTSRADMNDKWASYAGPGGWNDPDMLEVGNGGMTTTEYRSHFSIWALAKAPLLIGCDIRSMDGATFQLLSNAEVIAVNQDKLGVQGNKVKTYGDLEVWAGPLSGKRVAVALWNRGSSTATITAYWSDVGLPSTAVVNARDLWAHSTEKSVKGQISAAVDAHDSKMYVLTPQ
# [8] = system: Oryza sativa; test: Inhibition of rice beta-glucosidase at 0.1 mM using p-nitrophenyl glycopyranoside as substrate preincubated for 5 mins followed by substrate addition and measured after 20 mins by visible absorption spectroscopic analysis
# [9] = species: Homo sapiens; test: Inhibition of human alpha-fucosidase at 0.1 mM using p-nitrophenyl glycopyranoside as substrate preincubated for 5 mins followed by substrate addition and measured after 20 mins by visible absorption spectroscopic analysis
# [10] = system: Cornu aspersum; test: Inhibition of snail beta-mannosidase at 0.1 mM using p-nitrophenyl glycopyranoside as substrate preincubated for 5 mins followed by substrate addition and measured after 20 mins by visible absorption spectroscopic analysis
# [11] = system: Saccharomyces cerevisiae; test: Inhibition of Saccharomyces cerevisiae alpha-glucosidase at 0.1 mM using p-nitrophenyl glycopyranoside as substrate preincubated for 5 mins followed by substrate addition and measured after 20 mins by visible absorption spectroscopic analysis
# [12] = system: Prunus dulcis; test: Inhibition of almond beta-glucosidase at 0.1 mM using p-nitrophenyl glycopyranoside as substrate preincubated for 5 mins followed by substrate addition and measured after 20 mins by visible absorption spectroscopic analysis
# [13] = Uncompetitive inhibition of human alpha-fucosidase using p-nitrophenyl glycopyranoside as substrate preincubated for 5 mins followed by substrate addition and measured after 20 mins by Cornish-Bowden plot analysis
# [14] = species: Bos taurus; test: Inhibition of bovine kidney alpha-fucosidase at 5 uM using p-nitrophenyl glycopyranoside as substrate preincubated for 5 mins followed by substrate addition and measured after 20 mins by visible absorption spectroscopic analysis relative to control
# [15] = Inhibition of human alpha-fucosidase using p-nitrophenyl glycopyranoside as substrate preincubated for 5 mins followed by substrate addition and measured after 20 mins by visible absorption spectroscopic analysis
# [16] = species: Bos taurus; test: Inhibition of bovine kidney alpha-fucosidase at 0.120 uM using p-nitrophenyl glycopyranoside as substrate preincubated for 5 mins followed by substrate addition and measured after 20 mins by visible absorption spectroscopic analysis relative to control
# [17] = Competitive inhibition of human alpha-fucosidase using p-nitrophenyl glycopyranoside as substrate preincubated for 5 mins followed by substrate addition and measured after 20 mins by Dixon plot analysis
# [18] = Inhibition of bovine kidney alpha-fucosidase using p-nitrophenyl glycopyranoside as substrate preincubated for 5 mins followed by substrate addition and measured after 20 mins by visible absorption spectroscopic analysis; design: species or system Bos taurus
# [19] = species: Bos taurus; test: Inhibition of bovine kidney alpha-fucosidase at 0.120 uM using p-nitrophenyl glycopyranoside as substrate preincubated for 5 mins followed by substrate addition and measured after 20 mins by visible absorption spectroscopic analysis
# [20] = target: T3, Beta-galactosidase (Bos taurus) (UniProt Q58D55); test: Inhibition of bovine liver beta-galactosidase at 0.1 mM using p-nitrophenyl glycopyranoside as substrate preincubated for 5 mins followed by substrate addition and measured after 20 mins by visible absorption spectroscopic analysis
# T3 sequence (whole entry): T1 sequence (Q58D55 whole entry)
# [21] = Uncompetitive inhibition of bovine kidney alpha-fucosidase using p-nitrophenyl glycopyranoside as substrate preincubated for 5 mins followed by substrate addition and measured after 20 mins by Cornish-Bowden plot analysis; design: species or system Bos taurus
# [22] = Competitive inhibition of bovine kidney alpha-fucosidase using p-nitrophenyl glycopyranoside as substrate preincubated for 5 mins followed by substrate addition and measured after 20 mins by Dixon plot analysis; design: species or system Bos taurus
SMILES,inhibition [1],inhibition [5],inhibition [6],inhibition [7],inhibition [8],inhibition [10],inhibition [11],inhibition [12],further results
CCCCCCn1cc(CNC(=O)c2cc([C@H]3NC[C@@H](O)[C@H]3O)oc2C)nn1,inactive,inactive,inactive,inactive,inactive,inactive,inactive,inactive,IC50 [2]: 37000 nM; Ki [3]: 58000 nM; IC50 [4]: 94000 nM; inhibition [9]: inactive
C[C@@H]1N[C@@H](c2cn(-c3ccc(S(=O)(=O)c4ccc(-n5cc([C@@H]6N[C@@H](C)[C@@H](O)[C@H]6O)nn5)cc4)cc3)nn2)[C@H](O)[C@@H]1O,inactive,inactive,inactive,inactive,inactive,inactive,inactive,inactive,Ki [13]: 150 nM; inhibition [14]: 91%; IC50 [15]: 210 nM; inhibition [16]: 96%; Ki [17]: 60 nM; IC50 [18]: 0.48 nM; inhibition [19]: Active; inhibition [20]: inactive; Ki [21]: 0.52 nM; Ki [22]: 0.15 nM
